Laboratory results published in patent US8075922B2, “Method of co-infusing a deoxygenated hemoglobin containing blood substitute and inorganic nitrite” (Montana State University-Bozeman, priority 2002, dated 2011).

Test system: human patient
Conditions: sodium nitrite in phosphate buffered saline infused at 1 micromole per minute, begun before red blood cell transfusion

O=NO [sodium nitrite]
adverse effect of red blood cell transfusion: without adverse effect
